Test results from patent US20050100595A1, “Methods for micronization of hydrophobic drugs” (Brown University Research Foundation, priority 2001, published 2005).

Columns and labels:
[1] = Scanning electron microscopy of dicumarol formulations; format: physicochemical
Description: Scanning Electron Microscopy: All samples were sputter-coated with an Au—Pd target for 3.5 minutes and spread out on a carbon-backed adhesive disc on top of the SEM stub. The Hitachi 2700 was used to visualize the samples at an accelerating voltage of 8 kV.

[2] = Dicumarol loading by NaOH extraction; format: physicochemical; details: dicumarol content by NaOH extraction
Description: 100 mg p(FA:SA) 17:83 was dissolved in this solution by sonicating for an additional 30 s. The resultant solution was dispersed into 1.0 L petroleum ether and the precipitate was collected using a 100 nm filter composed of mixed-cellulose esters. The microsphere formulation was then frozen and lyophilized for 24 hours. The dicumarol loading was determined in this formulation by a simple extraction protocol. Microspheres were incubated overnight in 2.5 N NaOH at 37° C. Upon dissolution, an aliquot of approximately 15 μg based on theoretical loading was added to 2.5 N NaOH to make a total volume of 800 μL. This mixture was agitated for 2 minutes and centrifuged for 2 minutes at 11,269 g.
The dicumarol loading was determined in all formulations by a simple extraction protocol. Microspheres were incubated overnight in 2.5 N NaOH at 37° C. Upon dissolution, an aliquot of approximately 15 μg based on theoretical loading was added to 2.5 N NaOH to make a total volume of 800 μL. This mixture was agitated for 2 minutes and centrifuged for 2 minutes at 11,269 g.

[3] = Coulter particle size analysis (laser-light diffractometry, volume statistics); format: physicochemical
Description: A 250 μg/mL suspension of microspheres in 1% pluronic F127 [poly(ethylene oxide)-b-poly(propylene oxide)-b-poly(ethylene oxide)]/1% hydroxypropylmethylcellulose (HPMC) was introduced into the small volume fluid module. Only the Coulter output based on volume measurements was used for analysis.

[4] = in vivo; details: rat, 25 mg/kg
From the text: Rats were anesthetized using isoflurane gas.
Non-compartmental pharmacokinetics were assumed.

O=c1oc2ccccc2c(O)c1Cc1c(O)c2ccccc2oc1=O [Stock, Dicumarol]
particle size seen in SEM micrographs ([1]; FIG. 1): 10-20 microns
particle size seen in SEM micrographs ([1]; FIG. 7A): approximately 25 μm
Loading (drug loading) [2]: 100%
mean particle diameter ([3]; based on volume statistics): 18.5 μm
Coulter Particle Analysis 25% < ([3]; volume calculations, 25% of population less than this size): 12.98 μm
Coulter Particle Analysis 50% < ([3]; volume calculations, 50% of population less than this size): 18.95 μm
Coulter Particle Analysis 75% < ([3]; volume calculations, 75% of population less than this size): 24.82 μm
bioavailability ([4]; male, Sprague-Dawley): 90.1 ± 7.3%
Cmax ([4]; male, Sprague-Dawley, po): 73 ± 6 µg/mL
Tmax ([4]; male, Sprague-Dawley, po): 14 ± 2 h
plasma concentration reached (peak of plasma curve) ([4]; male, Sprague-Dawley, po): 64 µg/mL
time after which the peak of the plasma curve was reached ([4]; male, Sprague-Dawley, po): 3 h
AUC ([4]; po): 2666 ± 206 µg·h/mL
